Data from patent US7872052B2, “Use of heterocyclic compounds as SCCE inhibitors” (Arexis AB, priority 2003, dated 2011).

Columns and labels:
[1] = test system: Transgenic mice over-expressing human SCCE; test: Histological studies of skin morphology in SCCE transgenic mice after topical treatment; format: in vivo; details: for side effects (unusually thin epidermis): day 8 histology; for Unusually thin epidermis / Morphology changes: topical once daily 8 days, day 8; for Unusually thin epidermis: mice affected/mice in group; for Morphology changes: mice with changes/mice in group
From the text: (§1) Transgenic mice over-expressing human SCCE under the control of the SV40 early promoter were generated as described in WO 02/062135. These transgenic mice show a pattern of SCCE-expression which is similar to the expression pattern seen in psoriasis lesions and chronic lesions in atopic dermatitis in humans, i.e. expression in suprabasal cells which increases with distance from the basal layer. The transgenic mice develop pathological skin changes with marked hyperkeratosis, increased epidermal thickness, and dermal inflammation. From the age of 8-10 weeks transgenic mice show signs of itch, the frequency of which increase with age. The increase marked changes in skin morphology including increased epidermal thickness, also causes higher transepidermal water loss.
(§2) Transgenic mice, 6-9 month of age, were treated daily with compound I-3 (2-(2-Iodo-phenyl)-6,7-dimethoxy-benzo[d][1,3]oxazin-4-one) which was identified as an SCCE inhibitor as described above during 8 days. The substance was initially dissolved in DMSO and formulated in vehicle containing 45% isopropanol, 6% 1,2-propanediol with a 1.2% final concentration of DMSO. Two different concentrations of inhibitor, 300 μM and 30 μM, were formulated.
The study contained four different treatments with 3-4 mice in each group. Each mouse used in the study had phenotypic changes typical of SCCE transgenic animals.
• high dose (300 μM) of compound I-3 • low dose (30 μM) of compound I-3 • positive control (a pharmaceutical formulation (Betnovat, Glaxo SmithKline AB) containing betametasone) • negative control, vehicle (a pharmaceutical formulation lacking active substance)
The formulations (500 μl/mouse) were applied once daily (late afternoon) on the area around the ears and on the back of the mice. Mice were treated during 8 days and measurements of transepidermal water loss (TEWL) were performed during the treatment period.
Histological studies of skin morphology were performed on sacrificed mice after the last day of treatment (day 8). Tissue samples were fixed in 4% phosphate-buffered formaldehyde for 24 h in room temperature (RT) and then embedded in paraffin using standard histological procedure. To analyze tissue morphology, embedded tissue was sectioned (5 μm) and then stained with haematoxylin and Eosin (H/E) using standard histological protocols.

[2] = molecular target: T1, Recombinant active human SCCE (Homo sapiens, UniProt P49862); test: SCCE Inhibitor Test (chromogenic substrate S-2586, absorbance at 405 nm); format: biochemical; details: for IC50: 10 min preincubation, 1 mM S-2586, 60 min, 37° C, pH 7.2; for remaining activity at 1 µM: 1 μM compound; for remaining activity at 5 µM: 5 μM compound
T1 construct: made in house; host or cells: murine C127 cells transfected with a BPV vector (murine MT promoter)
Protocol: Recombinant active human SCCE was produced essentially as described in WO 95/00651. The cDNA encoding human SCCE was introduced into a BPV vector under the control of the murine MT promoter and expressed in transfected C127 cells. The produced SCCE was purified and activated using immobilized bovine trypsin.
SCCE activity was determined using the chromogenic substrate S-2586 (MeO-Suc-Arg-Pro-Tyr-pNA) (Chromogenix, Mölndal, Sweden) by measurement of the change in absorbance at 405 nm essentially as described in WO 95/00651. Inhibitors were dissolved in DMSO and added to the reaction mixture (10 mM sodium phosphate, pH 7.2, 0.5 M NaCl, 2.5 μg/ml SCCE) at appropriate concentrations followed by incubation for 10 min before the start of the enzymatic reaction by subsequent addition of the substrate S-2586 to a final concentration of 1 mM. The change in absorbance at 405 nm after 60 min was recorded and used as a measure of SCCE activity. The assay temperature was 37° C. […] The IC50 values were used to identify compounds as SCCE inhibitors of the invention.

[3] = test system: Transgenic mice over-expressing human SCCE; test: Transepidermal water loss (TEWL) in SCCE transgenic mice after topical treatment; format: in vivo; details: both concentrations (30 μM and 300 μM), topical once daily, 8 days, relative to positive control Betamethasone
From the text: as §1
as §2, with “Two different concentrations of inhibitor, 300 μM and 30 μM, were formulated.” left out
TEWL was measured on the back of mice with an Evaporimeter from DermaLAB (Cortex Technology ApS, Hadsund, Denmark) according to manufactures protocol. […] TEWL was measured on in the morning at day 0, 3, 5 and 8 for 1 min repeated twice.

[4] = positive control formulation (Betnovat)

T1 sequence (P49862 30-253): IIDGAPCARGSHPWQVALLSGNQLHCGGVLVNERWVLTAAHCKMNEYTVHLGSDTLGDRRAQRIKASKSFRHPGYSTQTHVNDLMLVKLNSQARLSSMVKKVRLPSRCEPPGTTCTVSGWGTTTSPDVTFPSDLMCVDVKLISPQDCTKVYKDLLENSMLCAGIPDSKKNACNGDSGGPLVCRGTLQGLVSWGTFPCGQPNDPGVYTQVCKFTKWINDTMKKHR

C[C@H]1C[C@H]2[C@@H]3CCC4=CC(=O)C=C[C@]4(C)[C@@]3(F)[C@@H](O)C[C@]2(C)[C@@]1(O)C(=O)CO [Betamethasone, reference compound]
side effects (unusually thin epidermis) [1]: side effects (unusually thin epidermis) found
Unusually thin epidermis [1, 4]: 3/3
Morphology changes [1, 4]: 0/3

COc1cc2nc(-c3ccccc3I)oc(=O)c2cc1OC [Compound I-3, 2-(2-Iodo-phenyl)-6,7-dimethoxy-benzo[d][1,3]oxazin-4-one]
IC50 [2]: 0.1 µM
remaining activity at 10 µM ([2]; 1 h, 10 μM compound): 0%
improvement of TEWL [3]: improves TEWL with approximately half the efficiency of the positive control
Unusually thin epidermis ([1]; 30 μM): 0/4
Morphology changes ([1]; 30 μM): 1/4
Unusually thin epidermis ([1]; 300 μM): 0/4
Morphology changes ([1]; 300 μM): 1/4
effects on skin morphology ([1]; both concentrations (30 μM and 300 μM), compared with vehicle group): positive effects on skin morphology to a higher degree then vehicle group
side effects (unusually thin epidermis) [1]: without the side effects

COc1cccc(-c2nc3sc4c(c3c(=O)o2)CCCC4)c1 [II-20, 2-(3-Methoxy-phenyl)-5,6,7,8-tetrahydro-3-oxa-9-thia-1-aza-fluoren-4-one]
IC50 [2]: 2 µM
remaining activity at 1 µM ([2]; 1 h): 52%
remaining activity at 5 µM ([2]; 1 h): 42%

O=c1oc(-c2ccncc2)nc2sc3c(c12)CCCCC3 [II-21, 2-Pyridin-4-yl-6,7,8,9-tetrahydro-5H-3-oxa-10-thia-1-aza-benzo[a]azulen-4-one]
IC50 [2]: 2 µM

Cc1nc2sc3c(c2c(=O)o1)CCCCC3 [II-22, 2-Methyl-6,7,8,9-tetrahydro-5H-3-oxa-10-thia-1-aza-benzo[a]azulen-4-one]
IC50 [2]: > 10 µM
remaining activity at 1 µM ([2]; 1 h): 49%
remaining activity at 5 µM ([2]; 1 h): 27%
